From ChEMBL document CHEMBL1147387, “A cytotoxic beta-carboline from the bryozoan Catenicella cribraria” (1993)

Test: Cytotoxicity against human NCI60 cells
Type: functional

In the case of `C=Cc1nccc2c1[nH]c1c(O)cccc12`, the GI50 is reported as 1.8 µM, the TGI is reported as 5.8 µM and the CC50 (read-out: LC50 (the source's name)) is reported as 19 µM.
